Results as given in patent publication US6958333B1, “Biarylurea derivatives” (Banyu Pharmaceutical Co., Ltd., priority 1999, dated 2005).

What was measured:
MKN-1 cells = test: Activity of inhibiting cell growth, MKN-1 (sulforhodamine B); type: cell-based; details: Homo sapiens, MKN-1, 72 h, cell growth inhibition, 3 days incubation
Protocol: (§1) Activity of Inhibiting Cell Growth
(§2) • (1) Method of cell culture
(§3) Clinical separative cancer cells HCT116 were cultured in Dulbecco′ modified Eagle's medium with 10% Fetal Bovine Serum, and clinical separative cancer cells MKN-1 were cultured in RPMI1640 medium added 10% Fetal Bovine Serum. Both cells were cultured at 37° C., under 5% CO2 and saturated steam. • (2) Determination of activity of inhibiting cell growth
(§4) The activity of inhibiting cell growth was measured using the modified method of Skehan's method (J. Natl. Cancer Inst. Vol.82, p.1107-1112, 1990), and so on. One hundred μL each of the culture medium containing 1×10^3 HCT116 or MKN-1 as living cells was pipetted to 96-well dish and cultured over night. […] Then, the diluted compounds or DMSO as the control, was added to the medium. One hundred μL of the medium added with the diluted drug solutions or DMSO was added to the cells cultured in 96-well dish, and was incubated for further 3 days.
(§5) To each well, 50 μL of trichloroacetic acid (50%) was added to fix the cells. The cells were stained using 0.4% sulforhodamine B. Sulforhodamine B was extracted with 10 mM tris buffer, and the optical density at 560 nm was compared with that of control at 450 nm.

HCT116 cells = test: Activity of inhibiting cell growth, HCT116 (sulforhodamine B); type: cell-based; details: Homo sapiens, HCT-116, 72 h, cell growth inhibition, 3 days incubation
Protocol: as §1, §2, §3, §4, §5

cyclin D2-Cdk4 = cyclin D2-Cdk4 (Homo sapiens, UniProt P11802); test: Enzyme assay of cyclin D2-Cdk4 (33P-ATP phosphorylation of RB peptide substrate); type: biochemical; details: Table 1, second value column (head repeats cyclin D1-Cdk4); 50 μM ATP, 100 μM peptide substrate, 30° C., 45 min
cyclin D2-Cdk4, sequence (P11802 whole entry): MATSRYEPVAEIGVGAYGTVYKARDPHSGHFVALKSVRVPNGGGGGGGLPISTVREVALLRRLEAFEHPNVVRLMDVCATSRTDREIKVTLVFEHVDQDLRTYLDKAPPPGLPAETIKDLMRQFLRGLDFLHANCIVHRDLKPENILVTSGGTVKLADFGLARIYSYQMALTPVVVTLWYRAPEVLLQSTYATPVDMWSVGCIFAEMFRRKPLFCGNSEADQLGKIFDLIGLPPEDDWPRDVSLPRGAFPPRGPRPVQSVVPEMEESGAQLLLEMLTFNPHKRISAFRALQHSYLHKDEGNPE
Description: • (1) Preparation of cyclin D1-Cdk4 and cyclin D2-Cdk4
cDNA of Cdk4 and its activator cyclin D1 or D2 was subcloned into a baculovirus-expression vector to make recombinant baculovirus and then, they are co-infected to insect cell Sf9 to express an active complex of cyclin D1-Cdk4 or cyclin D2-Cdk4. The cells were recovered and solubilized and purified by HPLC columnchromatography (The the enzyme are EMBO J. vol.15, p.7060-7069, 1996). • (2) Enzyme assay of cyclin D1-Cdk4 and cyclin D2-Cdk4
The reaction was carried out using the modified procedure of Kitagawa's method (Oncogene, vol.7, p.1067-1074, 1992). The volume of the reaction solution was 21.1 μL. The reaction buffer (R buffer) consisted of 20 mM Tri-HCl buffer (pH7.4)/10 mM MgCl2/4.5 mM 2-mercaptoethanol/1 mM ethyleneglycolbis(β-aminoethylether)-N,N,N′,N′-tetracetic acid (EGTA). Purified cyclin D1-Cdk4 or D2-Cdk4, 100 μM peptide substrate, 50 μM unlabeled ATP and ATP labeled with 1 μCi γ-33P(2000-4000 Ci/mmole) were added to the reaction mixture. The mixture was incubated at 30° C. for 45 min. 10 μL of phosphate buffer (350 mM) was added to stop the reaction. The peptide substrate was absorbed to P81 paper and its radioactivity was measured by a liquid scintillation counter. ATP labeled with γ-33P was purchased from Daiich Chemicals, Ltd. […]

cyclin D3-Cdk6 = target: T1, cyclin D3-Cdk6 (Homo sapiens, UniProt Q00534); test: Enzyme assay of cyclin D3-Cdk6 (33P-ATP phosphorylation of peptide substrate); type: biochemical; details: 100 μM peptide substrate, 50 μM ATP, 30° C.
T1 construct: made in house; host or cells: Sf9 insect cells, baculovirus co-infection
T1 sequence (Q00534 whole entry): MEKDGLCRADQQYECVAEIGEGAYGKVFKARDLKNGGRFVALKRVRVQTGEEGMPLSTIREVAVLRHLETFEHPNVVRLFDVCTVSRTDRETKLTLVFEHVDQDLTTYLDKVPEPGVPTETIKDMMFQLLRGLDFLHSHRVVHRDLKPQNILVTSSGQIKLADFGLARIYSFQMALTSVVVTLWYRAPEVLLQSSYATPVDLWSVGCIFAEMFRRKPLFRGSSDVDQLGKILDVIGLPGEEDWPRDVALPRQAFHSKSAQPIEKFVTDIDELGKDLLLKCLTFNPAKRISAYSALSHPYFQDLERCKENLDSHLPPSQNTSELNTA
T1 sequence (P30281 whole entry partner): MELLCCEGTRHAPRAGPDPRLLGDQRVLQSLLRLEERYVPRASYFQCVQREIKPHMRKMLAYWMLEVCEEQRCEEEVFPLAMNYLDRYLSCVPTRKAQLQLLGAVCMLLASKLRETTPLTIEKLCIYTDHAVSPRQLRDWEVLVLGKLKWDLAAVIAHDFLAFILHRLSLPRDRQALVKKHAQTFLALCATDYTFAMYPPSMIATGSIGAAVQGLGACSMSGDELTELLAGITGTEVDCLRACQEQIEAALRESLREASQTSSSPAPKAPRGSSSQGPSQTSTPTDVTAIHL
Description: • (1) Preparation of cyclin D1-Cdk6 and cyclin D3-Cdk6
As the same method of preparing cyclin D1-Cdk4, cDNA of Cdk6 and its activator cyclin D1 or D3 was recombined with baculovirus-expression vector to make recombinant baculovirus. This was co-infected to insect cell Sf9 to express an active complex of cyclin D1-Cdk6 or cyclin D3-Cdk6. The cells were recovered and solubilized and purified by HPLC columnchromatography. • (2) Enzyme assay of cyclin D1-Cdk6 and cyclin D3-Cdk6.
A peptide substrate used for cyclin D1-Cdk6 was synthetic peptide ([…] (SEQ ID No. 2) and that used for cyclin D3-Cdk6 was synthetic peptide ([…] (SEQ ID No. 3) (The EMBO J. vol. 15, p. 7060-7069, 1996).
The reaction was carried out using the modified procedure of Kitagawa's method (Oncogene, vol.7, p.1067-1074, 1992). The volume of the reaction solution was 21.1 μL. Purified cyclin D1-Cdk6 in R buffer and 400 μM peptide substrate or cyclin D3-Cdk6 and 100 μM pipetide substrate, unlabeled ATP (50 μM) and 1 μCi ATP labeled with γ-33P(2000-4000 Ci/mmole) were added to the reaction mixture. The mixture was incubated at 30° C. for 20 or 45 min. Then, 10 μL of phosphate buffer (350 mM) was added to stop the reaction. The peptide substrate was absorbed to P81 paper and its radioactivity was measured by a liquid scintillation counter. […]

IC50 (MKN-1 cells) [µM] | IC50 (HCT116 cells) [µM] | IC50 (cyclin D2-Cdk4) [µM] | IC50 (cyclin D3-Cdk6) [µM] | SMILES
0.87 | 0.15 |  |  | CN1CC[C@H](c2c(O)cc(O)c3c(=O)cc(-c4ccccc4Cl)oc23)[C@H](O)C1 (racemic) [(±)flavopiridol, flavopiridol]
 |  | 0.016 | 0.013 | O=C(Nc1cc(C2CCN(Cc3ccccc3)C2)ccn1)Nc1cccc2c1C1CCCN1C2=O (stereo not shown) [Working Example No. 165, N′-(pyrrolidino[2,1-b]isoindolin-4-on-8-yl)-N-(4-(N-benzylpyrrolidin-3-yl)pyridin-2-yl)urea]
